Source: patent publication US20250032676A1, “3D HYDROGEL COMPOSITE HAVING CANCER CELL APOPTOTIC EFFECT AND PREPARATION METHOD THEREOF” (DONGGUK UNIVERSITY INDUSTRY-ACADEMIC COOPERATION FOUNDATION, priority 2022, published 2025)

Test system: MDA-MB-231 breast cancer cells
Test: Cell killing by 6-MP released from hydrogel versus 6-MP at same concentration, WST-1 assay
Assay type: cell-based
Conditions: 24 h treatment, same 6-MP concentration; FIG. 12
Description: The apoptotic effect resulting from the release of anticancer agents was confirmed by comparing the effects of anticancer agents released due to chemical bond cleavage during photoirradiation with that of anticancer agents at the same concentration.
The three-dimensional hydrogels prepared according to Examples 1 to 3 to have a diameter of 8 mm and a height of 2 mm were stored together with 1 mL of PBS at 37° C. and 100 RPM. MDA-MB-231 breast cancer cells were inoculated at a density of 4×10^4 cells per well on a 48-well plate prepared with DMEM supplemented with 10% FBS and 1% penicillin/streptomycin and cultured at 37° C. for one day. After removal of the existing medium, cancer cells were treated with 50 μL of fresh medium and 150 μL of PBS containing released 6-MP, and incubated at 37° C. for 24 h. For the WST-1 assay, the cells were washed with PBS, treated with EZ-Cytox solution in each experimental group, incubated at 37° C. for 2 hours, and then measured by absorbance at 450 nm to confirm the cell apoptosis effect.

SMILES | breast cancer cells died / killed [%]
Sc1ncnc2nc[nH]c12 [6-MP, 6-mercaptopurine] | 21
S=c1nc[nH]c2nc[nH]c12 | 70
